Assays:
Type in all cases: cell-based
5-HT2A = biological target: T1, 5-HT2A (Homo sapiens, UniProt P28223); test: 5-HT2 receptor-mediated Gq activation via Gq/γ1 dissociation BRET; settings: for EC50: HEK293T cells; for Hall or N-Hall?: hallucinogenic or non-hallucinogenic effect predicted from level of 5-HT2A agonist efficacy
T1 construct: expressed in transfected cells; host or cells: HEK293T
Source text: (§1) To measure 5-HT2 receptor-mediated Gq activation via Gq/y1 dissociation as measured by Bioluminescence Resonance Energy Transfer (BRET) (McCorvy J D, Wacker D, Wang S, Agegnehu B, Liu J, Lansu K, Tribo AR, Olsen RHJ, Che T, Jin J, Roth BL. Structural determinants of 5-HT2B receptor activation and biased agonism. Nat Struct Mo/Biol. 2018; 25(9): 787-96), HEK293T cells were sub-cultured in Dulbecco's Modified Eagle Medium (DMEM) supplemented with 10% dialyzed fetal bovine serum (FBS) and were co-transfected in a 1:1:1:1 ratio with Rluc8-fused human Gaq (Gaq-Rluc8), a GFP2-fused to the C-terminus of human Gy1(Gy1-GFP2), human GI31, and 5-HT2 receptor using TransiT-2020. After at least 18-24 hours, transfected cells were plated in poly-lysine coated 96-well white clear bottom cell culture plates in DMEM containing 1% dialyzed FBS at a density of 25,000-40,000 cells in 200 μL per well and incubated overnight. The following day, medium was decanted, and cells were washed with 60 μL of drug buffer (1×HBSS, 20 mM HEPES, pH 7.4), then 60 μL of drug buffer was added per well. Cells were pre-incubated at in a humidified atmosphere at 37° C. before receiving drug stimulation. Drug stimulation utilized 30 μL addition of drug (3X) diluted in McCorvy buffer (1×HBSS, 20 mM HEPES, pH 7.4, supplemented with 0.3% BSA fatty acid free, 0.03% ascorbic acid) and plates were incubated at for 1 hour at 37° C. Substrate addition occurred 15 minutes before reading and utilized 10 μL of the Rluc substrate coelenterazine 400a for Gq dissociation BRET^2 (Prolume/Nanolight, 5 μM final concentration). Plates were read for luminescence at 400 nm and fluorescent GFP2 emission at 510 nm at 1 second per well using a Mithras LB940 multimode microplate reader (e.g. one provided by Berthold). The BRET ratios of fluorescence/luminescence were calculated per well and were plotted as a function of drug concentration using Graphpad Prism 8 (Graphpad Software Inc., San Diego, CA). Data were normalized to % 5-HT stimulation and analyzed using nonlinear regression “log(agonist) vs. response” to yield Emax and EC50 parameter estimates. Results are shown in Table 5, where A=<10; B=10 to <100; C=100 to 1000 and D=>1000; +++=>80%; ++=50 to 80%; and +=<50%; NA=No Activity. […] Hallucinogenic (“Hall”) or non-hallucinogenic (“N-Hall”) plastogenic effect is predicted for compounds based on the level 5-HT2A agonist efficacy.

5-HT2B = biological target: T2, 5-HT2B (Homo sapiens, UniProt P41595); test: as above; settings: HEK293T cells
T2 construct: expressed in transfected cells; host or cells: HEK293T
Source text: as §1

5-HT2C [1] = biological target: T3, 5-HT2C (Homo sapiens, UniProt P28335); test: as above; parameters: expressed in transfected cells; host or cells: HEK293T
T3 sequence (P28335 33-458): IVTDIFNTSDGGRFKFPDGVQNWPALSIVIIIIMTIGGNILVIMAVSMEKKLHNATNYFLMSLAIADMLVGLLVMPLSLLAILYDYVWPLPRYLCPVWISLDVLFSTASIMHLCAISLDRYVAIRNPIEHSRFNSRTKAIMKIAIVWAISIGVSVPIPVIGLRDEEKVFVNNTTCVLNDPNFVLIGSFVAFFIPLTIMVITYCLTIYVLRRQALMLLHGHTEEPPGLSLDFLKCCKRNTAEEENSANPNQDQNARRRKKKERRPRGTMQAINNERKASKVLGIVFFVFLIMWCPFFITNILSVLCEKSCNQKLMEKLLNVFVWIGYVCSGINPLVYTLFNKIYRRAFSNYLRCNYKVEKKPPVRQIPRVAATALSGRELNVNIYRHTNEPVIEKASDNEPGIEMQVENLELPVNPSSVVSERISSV
Source text: as §1

5-HT2C [2] = biological target: T3, 5-HT2C; test: 5-HT2C Gq signaling bias compared to β-arrestin signaling; parameters: expressed in transfected cells; host or cells: HEK293T (Gq arm; β-arrestin arm not described); settings: primary 5-HT2C signaling via Gq compared to β-arrestin
Source text: To measure 5-HT2 receptor-mediated Gq activation via Gq/y1 dissociation as measured by Bioluminescence Resonance Energy Transfer (BRET) (McCorvy J D, Wacker D, Wang S, Agegnehu B, Liu J, Lansu K, Tribo AR, Olsen RHJ, Che T, Jin J, Roth BL. Structural determinants of 5-HT2B receptor activation and biased agonism. Nat Struct Mo/Biol. 2018; 25(9): 787-96), HEK293T cells were sub-cultured in Dulbecco's Modified Eagle Medium (DMEM) supplemented with 10% dialyzed fetal bovine serum (FBS) and were co-transfected in a 1:1:1:1 ratio with Rluc8-fused human Gaq (Gaq-Rluc8), a GFP2-fused to the C-terminus of human Gy1(Gy1-GFP2), human GI31, and 5-HT2 receptor using TransiT-2020. After at least 18-24 hours, transfected cells were plated in poly-lysine coated 96-well white clear bottom cell culture plates in DMEM containing 1% dialyzed FBS at a density of 25,000-40,000 cells in 200 μL per well and incubated overnight. The following day, medium was decanted, and cells were washed with 60 μL of drug buffer (1×HBSS, 20 mM HEPES, pH 7.4), then 60 μL of drug buffer was added per well. Cells were pre-incubated at in a humidified atmosphere at 37° C. before receiving drug stimulation. […] Substrate addition occurred 15 minutes before reading and utilized 10 μL of the Rluc substrate coelenterazine 400a for Gq dissociation BRET^2 (Prolume/Nanolight, 5 μM final concentration). Plates were read for luminescence at 400 nm and fluorescent GFP2 emission at 510 nm at 1 second per well using a Mithras LB940 multimode microplate reader (e.g. one provided by Berthold). The BRET ratios of fluorescence/luminescence were calculated per well and were plotted as a function of drug concentration using Graphpad Prism 8 (Graphpad Software Inc., San Diego, CA). Data were normalized to % 5-HT stimulation and analyzed using nonlinear regression “log(agonist) vs. response” to yield Emax and EC50 parameter estimates. […]

T1 sequence (P28223 whole entry): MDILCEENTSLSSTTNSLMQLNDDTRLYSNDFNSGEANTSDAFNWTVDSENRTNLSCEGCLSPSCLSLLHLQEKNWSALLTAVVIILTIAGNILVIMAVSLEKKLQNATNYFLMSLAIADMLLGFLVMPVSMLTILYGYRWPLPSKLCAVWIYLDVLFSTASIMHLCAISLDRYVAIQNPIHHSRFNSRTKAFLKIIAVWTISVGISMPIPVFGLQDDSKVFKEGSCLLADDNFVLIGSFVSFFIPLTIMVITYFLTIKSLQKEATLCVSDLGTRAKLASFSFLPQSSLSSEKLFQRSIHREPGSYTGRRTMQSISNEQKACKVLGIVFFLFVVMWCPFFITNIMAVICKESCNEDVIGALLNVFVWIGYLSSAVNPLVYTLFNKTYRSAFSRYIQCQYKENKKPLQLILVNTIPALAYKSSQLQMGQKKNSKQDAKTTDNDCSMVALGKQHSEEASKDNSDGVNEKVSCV
T2 sequence (P41595 whole entry): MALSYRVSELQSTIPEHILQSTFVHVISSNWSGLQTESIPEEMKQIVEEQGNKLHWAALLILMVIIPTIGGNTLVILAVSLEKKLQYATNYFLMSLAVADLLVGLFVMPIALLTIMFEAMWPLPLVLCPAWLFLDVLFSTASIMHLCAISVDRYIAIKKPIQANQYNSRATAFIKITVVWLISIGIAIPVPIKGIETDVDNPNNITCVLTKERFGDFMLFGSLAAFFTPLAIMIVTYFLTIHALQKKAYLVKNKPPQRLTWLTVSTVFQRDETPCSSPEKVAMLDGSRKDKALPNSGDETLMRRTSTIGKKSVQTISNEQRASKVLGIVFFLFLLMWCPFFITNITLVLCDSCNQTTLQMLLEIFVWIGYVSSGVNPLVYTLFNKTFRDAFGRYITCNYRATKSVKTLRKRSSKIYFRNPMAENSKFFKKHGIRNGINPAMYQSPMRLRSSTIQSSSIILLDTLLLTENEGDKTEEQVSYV

| SMILES | EC50 (5-HT2A; Gq dissociation BRET) [nM] | Hall or N-Hall? (5-HT2A) | EC50 (5-HT2B) [nM] | EC50 (5-HT2C [1]) [nM] | 5-HT2C Gq signaling bias? (5-HT2C [2]) | Emax (5-HT2A; Gq dissociation BRET, normalized to % 5-HT stimulation) [%] | Emax (5-HT2C [1]; read-out: 5-HT2C Emax) [%] |
| --- | --- | --- | --- | --- | --- | --- | --- |
| CNC[C@H]1C[C@@H]1c1cc(F)ccc1OC | 100 to 1000 | N-Hall | 10 to 100 | 10 to 100 | Yes |  |  |
| CNCC1CC1c1cc(F)ccc1SC (stereo not drawn) | 100 to 1000 | N-Hall |  | < 10 | Yes |  |  |
| CSc1ccc(F)cc1C1CC1CN(C)C (stereo not drawn) | > 1000 | N-Hall |  | 10 to 100 | Yes | < 50 | < 50 |
